Reference: US4479941A, “Renin inhibitory peptides having PHE^13 delection” (Merck & Co., Inc., priority 1982, dated 1984)
Square brackets hold non-standard residues; d marks the D form. Peptide text beside a SMILES is read from it. * marks the point of attachment. Sta = CC(C)C[C@H](N)[C@@H](O)CC(=O)O; X2 = c1ccc(CC(N*)c2ccccc2)cc1; NH(CH2)3Ph = c1ccc(CCCN*)cc1; NHPhenethyl = c1ccc(CCN*)cc1; X5 = c1ccc(CN2CCC(N*)CC2)cc1; Isobutyryl = CC(C)C(=O)*; Boc = CC(C)(C)OC(=O)*; NHBn = c1ccc(CN*)cc1; X3 = OCCN(CCO)CCCN*

Molecular target: hog kidney renin (Sus scrofa, UniProt A0A287APG1)
Sequence (A0A287APG1 67-407): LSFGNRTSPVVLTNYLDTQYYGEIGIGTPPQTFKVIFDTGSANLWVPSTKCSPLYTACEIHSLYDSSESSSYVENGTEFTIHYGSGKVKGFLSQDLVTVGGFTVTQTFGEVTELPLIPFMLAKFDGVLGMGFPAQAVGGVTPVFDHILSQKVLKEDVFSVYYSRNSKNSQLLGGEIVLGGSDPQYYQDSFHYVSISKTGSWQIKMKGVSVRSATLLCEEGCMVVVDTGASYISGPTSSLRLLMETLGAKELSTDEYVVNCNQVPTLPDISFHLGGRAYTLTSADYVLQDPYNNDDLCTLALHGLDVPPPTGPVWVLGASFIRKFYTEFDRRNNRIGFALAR
Assay: Hog renin inhibition
Type: biochemical
Details: pH 7.3, read-out: I50 (concentration of peptide inhibitor necessary to produce 50% inhibition of renin activity)
Description: An assay was carried out in order to determine the inhibitory potency of the peptides of the present invention.

| Compound | IC50 |
| --- | --- |
| CC(C)C[C@H](NC(=O)C[C@H](O)[C@H](CC(C)C)NC(=O)[C@H](Cc1c[nH]cn1)NC(=O)[C@H](Cc1ccccc1)NC(=O)OC(C)(C)C)C(=O)NC(C)c1cccc2ccccc12 (single isomer, unassigned) [BOC--Phe-His-Sta-Leu-(+)-α-naphthylethylamide] | 11 nM |
| CC(C)C[C@H](NC(=O)C[C@H](O)[C@H](CC(C)C)NC(=O)[C@H](Cc1c[nH]cn1)NC(=O)[C@H](Cc1ccccc1)NC(=O)OC(C)(C)C)C(=O)NCc1ccccc1 [BOC--Phe--His--Sta--Leu--benzylamide, BOC--Phe-His-Sta-Leu-benzylamide] (Boc-FH[Sta]L-NHBn) | 11 nM |
| CC(C)C[C@H](NC(=O)C[C@H](O)[C@H](CC(C)C)NC(=O)[C@H](Cc1c[nH]cn1)NC(=O)[C@H](Cc1ccccc1)NC(=O)[C@@H]1CCCN1C(=O)[C@H](Cc1c[nH]cn1)NC(=O)C(C)C)C(=O)NC(Cc1ccccc1)c1ccccc1 (stereo partly drawn) [IBU--His-Pro-Phe-His-Sta-Leu-1,2-diphenylethylamide] (Isobutyryl-HPFH[Sta]L-X2) | 5.6 nM |

Second part, the compound after the results:

| IC50 | Compound |
| --- | --- |
| 3.4 nM | CC(=O)N[C@@H](Cc1ccccc1)C(=O)N[C@@H](Cc1c[nH]cn1)C(=O)N[C@@H](Cc1ccccc1)[C@@H](O)CC(=O)N[C@@H](CC(C)C)C(=O)NCc1ccccc1 [Acetyl--Phe-His-AHPPA-Leu-benzylamide] |
| 1.4 nM | CC(C)C[C@H](NC(=O)C[C@H](O)[C@H](Cc1ccccc1)NC(=O)[C@H](Cc1c[nH]cn1)NC(=O)[C@H](Cc1ccccc1)NC(=O)OC(C)(C)C)C(=O)NCc1ccccc1 [BOC--Phe--His--AHPPA--Leu--benzylamide, BOC--Phe-His-AHPPA^4 -Lleu-benzylamide] |
| 36 nM | CC(C)C[C@H](NC(=O)C[C@H](O)[C@H](CC(C)C)NC(=O)[C@H](Cc1c[nH]cn1)NC(=O)[C@H](Cc1ccccc1)NC(=O)OC(C)(C)C)C(=O)N[C@@H](CC(C)C)[C@@H](O)CC(=O)O [BOC--Phe--His--Sta--Leu--Sta, BOC--Phe-His-Sta-Leu-Sta] (Boc-FH[Sta]L[Sta]-OH) |
| 30 nM | CC(C)C[C@H](NC(=O)C[C@H](O)[C@H](CC(C)C)NC(=O)[C@H](Cc1c[nH]cn1)NC(=O)[C@H](Cc1ccccc1)NC(=O)[C@@H]1CCCN1C(=O)[C@H](Cc1c[nH]cn1)NC(=O)C(C)C)C(=O)NCCc1ccccc1 [IBU--His-Pro-Phe-His-Sta-Leu-2-phenylethylamide] (Isobutyryl-HPFH[Sta]L-NHPhenethyl) |
| 19 nM | CC(C)C[C@H](NC(=O)C[C@H](O)[C@H](CC(C)C)NC(=O)[C@H](Cc1c[nH]cn1)NC(=O)[C@H](Cc1ccccc1)NC(=O)[C@@H]1CCCN1C(=O)[C@H](Cc1c[nH]cn1)NC(=O)C(C)C)C(=O)NCCCc1ccccc1 [IBU--His-Pro-Phe-His-Sta-Leu-3-phenylpropylamide] (Isobutyryl-HPFH[Sta]L-{NH(CH2)3Ph}) |
| 13 nM | CC(C)C[C@H](NC(=O)C[C@H](O)[C@H](CC(C)C)NC(=O)[C@H](Cc1c[nH]cn1)NC(=O)[C@H](Cc1ccccc1)NC(=O)[C@@H]1CCCN1C(=O)[C@H](Cc1c[nH]cn1)NC(=O)C(C)C)C(=O)NCc1ccccc1 [N-Isobutyryl-L-histidyl-L-prolyl-L-phenylalanyl-L-histidyl-(3S,4S)-statyl-L-leucyl-benzylamide] (Isobutyryl-HPFH[Sta]L-NHBn) |

Molecular target: T1, human kidney renin (Homo sapiens, UniProt P00797)
T1 construct: human kidney renin purified as described in Bangham; from tissue; host or cells: human kidney
T1 sequence (P00797 67-406): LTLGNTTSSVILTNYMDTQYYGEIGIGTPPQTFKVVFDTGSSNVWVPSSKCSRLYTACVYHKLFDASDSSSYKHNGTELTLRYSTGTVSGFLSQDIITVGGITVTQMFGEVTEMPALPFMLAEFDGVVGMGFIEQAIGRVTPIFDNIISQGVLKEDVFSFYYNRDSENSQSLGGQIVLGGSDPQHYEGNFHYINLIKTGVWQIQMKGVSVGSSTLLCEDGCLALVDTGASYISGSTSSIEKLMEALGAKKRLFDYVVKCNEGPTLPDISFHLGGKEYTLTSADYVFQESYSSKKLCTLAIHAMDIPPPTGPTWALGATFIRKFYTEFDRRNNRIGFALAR
Assay: Human renin inhibition
Type: biochemical
Details: purified human kidney renin; read-out: KI (dissociation constant of the inhibited enzyme-inhibitor complex)
Description: An assay was carried out in order to determine the inhibitory potency of the peptides of the present invention. The assay measured the inhibition of human kidney renin purified as described in Bangham, D. R., Robertson, I., Robinson, J. I. S., Robinson, C. J., and Tree, M., Clinical Science and Molecular Medicine, 48 (Supp. 2): 136s-159s (1975), and further purified by affinity chromatography on pepstatin-aminohexyl-Sepharase as described in Poe, M., Wu., J. K., Florance, J. R., Radkey, J. A., Bennett, C. D., and Hoagsteen, K., J. Biol. Chem. (1982, in press). The assay was also in accordance with Poe et al. cited above. Results are expressed as KI values, which refer to the dissociation constant of the inhibited enzyme-inhibitor complex. This KI value was obtained as described above.

| Ki | Compound |
| --- | --- |
| 0.06 nM | CC(C)C[C@H](NC(=O)C[C@H](O)[C@H](CC(C)C)NC(=O)[C@H](Cc1c[nH]cn1)NC(=O)[C@H](Cc1ccccc1)NC(=O)OC(C)(C)C)C(=O)NC1CCN(Cc2ccccc2)CC1 [BOC--Phe-His-Sta-Leu-(4-amido-1-benzylpiperidine)] (Boc-FH[Sta]L-X5) |
| 52 nM | CC(C)C[C@H](NC(=O)C[C@H](O)[C@H](CC(C)C)NC(=O)[C@H](Cc1c[nH]cn1)NC(=O)[C@H](Cc1ccccc1)NC(=O)OC(C)(C)C)C(=O)NCCCN(CCO)CCO [BOC--Phe-His-Sta-Leu-[N-(3-amidopropyl)diethanolamine]] (Boc-FH[Sta]L-X3) |
| 12 nM | CC(C)C[C@H](NC(=O)C[C@H](O)[C@H](CC(C)C)NC(=O)[C@H](Cc1c[nH]cn1)NC(=O)[C@H](Cc1ccccc1)NC(=O)[C@@H]1CCCN1C(=O)[C@H](Cc1c[nH]cn1)NC(=O)C(C)C)C(=O)NCc1ccccc1 [N-Isobutyryl-L-histidyl-L-prolyl-L-phenylalanyl-L-histidyl-(3S,4S)-statyl-L-leucyl-benzylamide] (Isobutyryl-HPFH[Sta]L-NHBn) |

System: hog renin
Assay: not given
Details: after injection of hog renin into nephrectomized rats (Gross et al. 1971); cited from earlier work

| Compound | reduction of blood pressure in vivo |
| --- | --- |
| pepstatin | reduce blood pressure in vivo |

System: aspartyl proteases such as pepsin, cathepsin D, and renin
Assay: not given
Details: other acid proteases; cited from earlier work

| Compound | inhibition of aspartyl proteases (selectivity) |
| --- | --- |
| pepstatin | inhibition of a variety of other acid proteases in addition to renin |
